Laboratory results: patent US7799824B2, “Quaternary salt CCR2 antagonists” (OraPharma, Inc., priority 2004, dated 2010)
Several values for one entry are separate records, joined by “and”; a condition that tells them apart may be missing. Equal entries are not always repeated.

Target: T1, CCR2 (Homo sapiens, UniProt P41597)
T1 sequence (P41597 1-360 isoform P41597-2): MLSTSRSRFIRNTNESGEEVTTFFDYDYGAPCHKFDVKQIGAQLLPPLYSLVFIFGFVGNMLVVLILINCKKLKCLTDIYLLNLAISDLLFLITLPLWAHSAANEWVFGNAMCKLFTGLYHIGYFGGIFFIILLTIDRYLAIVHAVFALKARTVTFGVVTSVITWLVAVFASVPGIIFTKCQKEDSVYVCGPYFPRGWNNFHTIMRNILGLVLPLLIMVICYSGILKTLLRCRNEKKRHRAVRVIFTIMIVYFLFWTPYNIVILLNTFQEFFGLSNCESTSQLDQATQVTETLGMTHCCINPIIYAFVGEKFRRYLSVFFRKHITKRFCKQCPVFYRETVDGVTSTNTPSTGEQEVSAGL
Test: MCP-1 Receptor Binding Assay in THP-1 Cells
Conditions: MCP-1 binding to CCR2; test concentration of 25 μM, unless indicated otherwise; read-out: % Inhibition Ligand Binding
Procedure, shortened: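 THP-1 cells; bound radioactivity collected on filter plates and counted by scintillation. Buffer-only blanks subtracted, drug-treated values compared with vehicle; nonspecific binding defined with 1 μM unlabeled MCP-1.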

SMILES | inhibition at 25 µM [%]
C[N+](C)(Cc1ccc(CNC(=O)C2=Cc3ccccc3CCC2)cc1)C1CCOCC1 [Cpd 148, (4-{[(8,9-dihydro-7H-benzocycloheptene-6-carbonyl)-amino]-methyl}-benzyl)-dimethyl-(tetrahydro-pyran-4-yl)-ammonium iodide] | 7
Cc1cc(Cl)cc2c1OCC(C(=O)NCc1ccc(C[N+](C)(C)C3CCOCC3)cc1)=C2 [Cpd 121, (4-{[(6-chloro-8-methyl-2H-chromene-3-carbonyl)-amino]-methyl}-benzyl)-dimethyl-(tetrahydro-pyran-4-yl)-ammonium iodide] | 37
C[N+]1(Cc2ccc(NC(=O)C3=Cc4ccccc4CCC3)cc2)CCCC1 [Cpd 145, 1-{4-[(8,9-dihydro-7H-benzocycloheptene-6-carbonyl)-amino]-benzyl}-1-methyl-pyrrolidinium iodide] | 36
Cc1c(Cl)cccc1C(=O)Nc1ccc(C[N+](C)(C)C2CCOCC2)cc1 [Cpd 25, [4-(3-chloro-2-methyl-benzoylamino)-benzyl]-dimethyl-(tetrahydro-pyran-4-yl)-ammonium iodide] | 15
C[N+](C)(Cc1ccc(CNC(=O)C=Cc2cccc(C(F)(F)F)c2)cc1)C1CCOCC1 [Cpd 64, dimethyl-(tetrahydro-pyran-4-yl)-(4-{[3-(3-trifluoromethyl-phenyl)-acryloylamino]-methyl}-benzyl)-ammonium iodide] | 63
C[N+]1(Cc2ccc(CNC(=O)C=Cc3cccc(C(F)(F)F)c3)cc2)CCOCC1 [Cpd 62, 4-methyl-4-(4-{[3-(3-trifluoromethyl-phenyl)-acryloylamino]-methyl}-benzyl)-morpholin-4-ium iodide] | 9

Same assay, conditions: THP-1 cells, 0.5 nM 125I labeled MCP-1, 2 hours at 30° C.; read-out: Mean Ligand Binding IC50 (inhibition of MCP-1 binding to CCR2)

SMILES | IC50
C[N+](C)(Cc1ccc(NC(=O)c2ccc(Cl)c(Cl)c2)cc1)C[C@H]1CCCO1 [Cpd 16, (2R)-[4-(3,4-dichloro-benzoylamino)-benzyl]-dimethyl-(tetrahydro-furan-2-ylmethyl)-ammonium iodide] | 0.85 µM
C[N+](C)(Cc1ccc(NC(=O)C2=Cc3cc(Cl)ccc3OC2)cc1)C1CCCCC1 [Cpd 98, {4-[(6-chloro-2H-chromene-3-carbonyl)-amino]-benzyl}-cyclohexyl-dimethyl-ammonium iodide] | 0.27 µM
C[N+](C)(Cc1ccc(NC(=O)c2cc3ccccc3o2)cc1)C1CCCCC1 [Cpd 157, {4-[(benzofuran-2-carbonyl)-amino]-benzyl}-cyclohexyl-dimethyl-ammonium iodide] | 0.69 µM
C[N+](C)(Cc1ccc(NC(=O)c2sc3ccccc3c2Cl)cc1)C1CCCCC1 [Cpd 178, {4-[(3-chloro-benzo[b]thiophene-2-carbonyl)-amino]-benzyl}-cyclohexyl-dimethyl-ammonium iodide] | 8.8 µM
C[N+]1(Cc2ccc(NC(=O)C=Cc3cccc(C(F)(F)F)c3)cc2)CCCCC1 [Cpd 57, 1-methyl-1-{4-[3-(3-trifluoromethyl-phenyl)-acryloylamino]-benzyl}-piperidinium iodide] | 13.3 µM
C[N+](C)(Cc1ccc(CNC(=O)C=Cc2cccc(Br)c2)cc1)C1CCCCC1 [Cpd 1, (4-{[3-(3-bromo-phenyl)-acryloylamino]-methyl}-benzyl)-cyclohexyl-dimethyl-ammonium iodide] | 2.3 µM
C[N+](C)(Cc1ccc(NC(=O)c2cn(Cc3ccccc3)c3ccccc23)cc1)C1CCOCC1 [Cpd 162, {4-[(1-benzyl-1H-indole-3-carbonyl)-amino]-benzyl}-dimethyl-(tetrahydro-pyran-4-yl)-ammonium iodide] | 1.6 µM
C[N+](C)(Cc1ccc(NC(=O)C=Cc2ccc(Cl)c(Cl)c2)cc1)C1CCCCC1 [Cpd 71, cyclohexyl-{4-[3-(3,4-dichloro-phenyl)-acryloylamino]-benzyl}-dimethyl-ammonium iodide] | 0.17 µM and 0.32 µM
C[N+](C)(Cc1ccc(NC(=O)c2cc3ccccc3s2)cc1)C1CCOCC1 [Cpd 176, {4-[(benzo[b]thiophene-2-carbonyl)-amino]-benzyl}-dimethyl-(tetrahydro-pyran-4-yl)-ammonium iodide] | 0.26 µM

Other lines, results leading:

IC50 | SMILES
0.62 µM | Cn1c(C(=O)Nc2ccc(C[N+](C)(C)C3CCCCC3)cc2)cc2ccccc21 [Cpd 163, cyclohexyl-dimethyl-{4-[(1-methyl-1H-indole-2-carbonyl)-amino]-benzyl}-ammonium iodide]
2.4 µM | C[N+](C)(Cc1ccc(NC(=O)C2=Cc3c(ccc4ccccc34)OC2)cc1)C1CCSCC1 [Cpd 138, {4-[(3H-benzo[f]chromene-2-carbonyl)-amino]-benzyl}-dimethyl-(tetrahydro-thiopyran-4-yl)-ammonium iodide]
4.6 µM | C[N+]1(Cc2ccc(NC(=O)C3=Cc4c(ccc5ccccc45)OC3)cc2)CCCC1 [Cpd 136, 1-{4-[(3H-benzo[f]chromene-2-carbonyl)-amino]-benzyl}-1-methyl-pyrrolidinium iodide]
0.34 µM | C[N+](C)(Cc1ccc(NC(=O)C=Cc2cccc(Br)c2)cc1)C1CCOCC1 [Cpd 43, {4-[3-(3-bromo-phenyl)-acryloylamino]-benzyl}-dimethyl-(tetrahydro-pyran-4-yl)-ammonium iodide]
3.3 µM | C[N+](C)(Cc1ccc(NC(=O)c2cc3cc(Cl)ccc3[nH]2)cc1)C[C@@H]1CCCO1 [Cpd 165, (2S)-{4-[(5-chloro-1H-indole-2-carbonyl)-amino]-benzyl}-dimethyl-(tetrahydro-furan-2-ylmethyl)-ammonium iodide]
5.2 µM | C[N+](C)(Cc1ccc(NC(=O)c2cccc(-c3ccc(C(F)(F)F)cc3)c2)cc1)C1CCOCC1 [Cpd 85, dimethyl-(tetrahydro-pyran-4-yl)-{4-[(4′-trifluoromethyl-biphenyl-3-carbonyl)-amino]-benzyl}-ammonium iodide]
14.6 µM | C[N+](C)(Cc1ccc(NC(=O)C=Cc2cccc(Br)c2)cc1)C1CCSCC1 [Cpd 44, {4-[3-(3-bromo-phenyl)-acryloylamino]-benzyl}-dimethyl-(tetrahydro-thiopyran-4-yl)-ammonium iodide]
3.7 µM | C[N+](C)(Cc1ccc(NC(=O)C=Cc2ccc(Br)cc2)cc1)C1CCOCC1 [Cpd 47, {4-[3-(4-bromo-phenyl)-acryloylamino]-benzyl}-dimethyl-(tetrahydro-pyran-4-yl)-ammonium iodide]
1.5 µM | C[N+](C)(Cc1ccc(NC(=O)c2cc(Cl)sc2Cl)cc1)C1CCOCC1 [Cpd 175, {4-[(2,5-dichloro-thiophene-3-carbonyl)-amino]-benzyl}-dimethyl-(tetrahydro-pyran-4-yl)-ammonium iodide]
6 µM | Cc1ccc(-c2cccc(C(=O)Nc3ccc(C[N+](C)(C)C4CCCCC4)cc3)c2)cc1 [Cpd 86, cyclohexyl-dimethyl-{4-[(4′-methyl-biphenyl-3-carbonyl)-amino]-benzyl}-ammonium iodide]
0.6 µM | COc1ccc2c(c1)OCC(C(=O)Nc1ccc(C[N+](C)(C)C3CCCCC3)cc1)=C2 [Cpd 128, cyclohexyl-{4-[(7-methoxy-2H-chromene-3-carbonyl)-amino]-benzyl}-dimethyl-ammonium iodide]
0.82 µM | Cc1ccc2c(c1)C=C(C(=O)Nc1ccc(C[N+](C)(C)C3CCOCC3)cc1)CO2 [Cpd 103, dimethyl-{4-[(6-methyl-2H-chromene-3-carbonyl)-amino]-benzyl}-(tetrahydro-pyran-4-yl)-ammonium iodide]
